Reference: paper PMC9506044, “Identification of Protosappanoside D from Caesalpinia decapetala and Evaluation of Its Pharmacokinetic, Metabolism and Pharmacological Activity” (Molecules, 2022)
“Also recorded” adds a separate entry of the source. Like-named read-outs stand apart in the source and are kept apart here.

What was measured:
[1] = Metabolites identification in rat plasma (UHPLC/Q Exactive Plus MS); type: in vivo, Sprague-Dawley rats; settings: PTD 27.3 mg/kg by gavage twice daily for 3 d, 2 h after last administration
Method: To investigate the PTD metabolites, Sprague-Dawley rats were randomly divided into two groups with six rats in each group. PTD was continuously administered by gavage twice daily for 3 d at a dose of 27.3 mg/kg. Blood was collected from the rat femoral artery 2 h after the last administration, centrifuged at 6000 rpm at 4 °C for 6 min, and 100 μL of plasma was separated and frozen at −20 °C until analysis.
Qualitative analysis of metabolites was conducted on a Vanquish horizon (Thermo Scientific, Waltham, MA, USA) and combined with a Q Exactive Plus Orbitrap MS (QE Plus, Thermo Scientific, USA) system. The separation of PTD and its metabolites was achieved on a Hypersil gold column (2.1 × 150 mm, i.d., 1.9 μm). The mobile phase consisted of water containing 0.1% formic acid (B) and acetonitrile containing 0.1% formic acid (A). The gradient elution program was set as follows: 0–2 min, 5% A; 2–3 min, 5~25% A; 3–6 min, 25~40% A; 6–13 min, 40~95% A; 13–14 min, 95~95% A; 14–15 min, 95~5% A; 15–18 min, 5~5% A; flow rate, 0.3 mL/min. The MS unit parameters were set as follows: the range of data acquisition was 150–1000 m/z, electrospray voltage was 2.5 kV(−), 3.5 kV(+), solvent removal gas flow rate was 8 L/min, and desolvent gas temperature was 320 °C. Acquisition and processing were conducted using the Xcalibur 4.2 software (Thermo Fisher Scientific, USA) and Compound Discoverer 3.2 (Thermo, USA).
A 600 μL aliquot of each plasma sample was transferred into a 5 mL centrifuge tube, 300 μL of 2% formic acid solution and 2.4 mL of methanol was added before vortexing for 2 min. This was followed by sonication in an ultrasonic machine for 10 min, and centrifugation at 13,225× g for 10 min. The supernatant was then placed in a centrifuge tube and evaporated to dryness under a stream of nitrogen at 37 °C. The residues were dissolved in 200 μL of 50% methanol and centrifuged at 13,225× g for 10 min, and 1 μL of the solution was injected into the QE system.

RAW264.7 cells = experiment: MTS cell viability assay on RAW264.7 cells; type: cell-based; settings: 24 h treatment
Method: (§1) RAW264.7 cells, obtained from American Type Culture Collection (ATCC, Manassas, VA, USA), were cultured in Dulbecco’s modified Eagle’s medium (DMEM) (Life Technologies, Grand Island, NY, USA) supplemented with 10% fetal bovine serum (FBS) and 1% penicillin-streptomycin (Grand Island, NY, USA). The cultures were incubated at 37 °C in a humidified atmosphere containing 5% CO2.
Cell viability was determined using the MTS cell viability assay kit. RAW264.7 cells were cultured at a density of 1 × 10^5 cells per well in 96-well plates by the treatment with various concentrations of PTD and PTB, respectively. After 24 h, 5 µL MTS was added to each well and incubated for 3 h. The plates were then read at 490 nm using a microplate reader.

[2] = test system: LPS-stimulated RAW264.7 cells; experiment: Secretion of TNF-α, IL-1β and IL-6 by LPS-induced RAW264.7 cells (ELISA); type: cell-based; settings: 200 μmol/L, LPS 1 μg/mL, 24 h, compared to the model group
Method: as §1
RAW264.7 cells (1 × 10^5 cells/well in a 96-well plate) were treated with PTD, PTB (200 μmol/L) and stimulated by LPS (1 μg/mL) for 24 h. As a positive control, the impacts of Dex on LPS-induced RAW264.7 cells were also determined parallelly. The supernatants were then collected, and the accumulated NO level was determined using Griess reagent. The concentrations of TNF-α, IL-6 and IL-1β in conditioned media were measured using enzyme-linked immunosorbent assay (ELISA) according to the supplier’s instructions.

[3] = Pharmacokinetic study in rats after oral and intravenous administration of PTD (UPLC-MS/MS, plasma); type: in vivo; settings: Sprague-Dawley; for AUC(0-inf) / AUC(0-t) / Cmax / MRT last / MRT inf / half-life / Tmax: rat plasma; for MRT last: read-out: MRT(0–t); for MRT inf: read-out: MRT(0–∞); for half-life: read-out: t1/2z (converted)
Method: Specific pathogen-free Sprague-Dawley rats (230 ± 10 g) were purchased from Changsha Tianqin Biotechnology Co., Ltd. (Changsha, China; certificate no. SCXK (Xiang) 2014-0010). Before starting the experiments, the rats were allowed one week of acclimatization in the animal quarters under air conditioning (25 ± 1 °C) and an automatically controlled photoperiod of 12 h of light daily. They were fed with standard rodent chow and tap water ad libitum. Rats were fasted for 12 h before the start of the experiment but were free to drink water. All experiments were approved by the Animal Ethics Committee of Guizhou Medical University and conducted in accordance with the guidelines of the Committee on the Care and Use of Laboratory Animals in China.
For the pharmacokinetic study, 12 rats were randomly divided into two groups, with 6 rats in each group. In the oral administration group, PTD was intragastrically administered to the rats at a dose of 27.3 mg/kg. For intravenous administration, PTD was injected at a dose of 9.1 mg/kg via the tail vein. Blood samples (0.3 mL) were collected directly from the caudal vein using anticoagulant centrifugal tubes at 0.083, 0.167, 0.33, 0.5, 0.75, 1, 1.5, 2, 4, 6, 9, 12 and 24 h after intravenous and oral administration, respectively. The blood sample was centrifuged at 6000 rpm for 6 min, and the supernatant plasma was transferred into a new clean tube and stored at −80 °C prior to further use.
The UPLC-MS/MS system consisted of an ACQUITY I-Class UPLC system and an XEVO TQ-S triple-quadrupole tandem mass spectrometer (Waters Corp., Milford, MA, USA) equipped with an ESI source. Chromatographic separation was performed using a UPLC BEN C18 column (2.1 × 50 mm, […]; Waters Corp., Milford, MA, USA) at 40 °C. The mobile phase consisted of water containing 0.2% formic acid (B) and acetonitrile containing 0.2% formic acid (A) delivered at 0.3 mL/min as a gradient as follows: 0–0.5 min, 10% A; 0.5–3 min, 90% A; 3–4 min, 90% A; 4–4.5 min, 10% A; 4.5–5 min, 10% A. Waters XEVO TQ-S triple-quadrupole mass spectrometer equipped with an ESI source was used for the mass analysis and detection. The main working parameters were set as follows: source temperature, 120 °C; desolvation temperature, 350 °C; and nebuliser gas (N2), 650 L/h. The scan time for all analytes was set at 0.2 s and acquisition and processing were conducted on a Micromass Masslynx4.1.
A 100 μL aliquot of each plasma sample was transferred into a 1.5 mL centrifuge tube, and 50 μL of 2% formic acid solution was added before vortexing for 30 s. Subsequently, the internal standard (IS) (50 μL of 20 ng/mL puerarin) and 400 μL of methanol were added and vortexed for 1 min. For subsequent treatment methods were the same as mentioned in the above section (4.7.1); finally, 1 μL of the solution was injected into the UPLC-MS/MS system.
Compound discoverer 3.2 was used for the analysis of metabolites of PTD; WinNonlin was used for the analysis of pharmacokinetic parameters, and Graphpad 8.2 was used for the illustrations. Data are expressed as mean ± SD. Statistical analysis was performed using the Statistical Product and Service Solutions software package (SPSS 22.0, SPSS Inc., Chicago, IL, USA). The results were analyzed using one-way ANOVA and bioavailability (F) was calculated according to the equation reported in He et al..

[4] = Stability of the analytes in rat plasma under various storage conditions; type: in vitro ADME
Method: The stability of analytes in rat plasma was assessed using QC samples at low, medium and high concentrations (n = 5 for each concentration level) under three conditions: (1) at room temperature for 24 h; (2) refrigerated at 4 °C for 24 h; and (3) three freeze-thaw cycles.

[5] = po, intragastric administration of PTD 27.3 mg/kg
[6] = rat, plasma, po, 27.3 mg/kg, intragastric administration of PTD 27.3 mg/kg
[7] = intravenous administration of PTD 9.1 mg/kg

## COC1(C(=O)O)COc2cc(O[C@@H]3O[C@H](CO)[C@@H](O)[C@H](O)[C@H]3O)ccc2-c2cc(O)c(O)cc2C1 (stereo partly shown) [M4]
[1]
  Identification (metabolic pathway from PTD): Desaturation, Oxidation, Methylation

## OCC1(O)COc2cc(O)ccc2-c2cc(O)c(O)cc2C1 (stereo not shown) [PTB, protosappanin B, reference compound]
RAW264.7 cells
  concentration with no cytotoxicity to RAW264.7 cells: below 300 μmol/L
[2]
  secretion of IL-1β: significantly reduced; also recorded: significantly downregulated
  secretion of IL-6: significantly reduced; also recorded: significantly downregulated
  secretion of TNF-α: significantly reduced; also recorded: significantly downregulated
[3]; [5]
  AUC(0-inf): 204 ± 43.9 ng·h/mL
  AUC(0-t): 179 ± 45 ng·h/mL
  Cmax: 31.1 ± 10.5 ng/mL
  MRT last: 7.41 ± 0.77 h
  MRT inf: 11.1 ± 2.32 h
  half-life: 7.79 ± 1.59 h
[3]; [6]
  Tmax: 1.42 ± 0.49 h
[3]; [7]
  AUC(0-inf): 230 ± 71.9 ng·h/mL
  AUC(0-t): 202 ± 59.5 ng·h/mL
  MRT last: 6.45 ± 2.15 h
  MRT inf: 10.5 ± 3.88 h
  half-life: 6.78 ± 2.69 h
[1]
  Identification (metabolic pathway from PTD): desugarization
[4]; 4 °C for 24 h, nominal 2.51 ng/mL
  Measured Concentration (Mean ± SD): 2.32 ± 0.11 ng/mL
[4]; 4 °C for 24 h, nominal 20.08 ng/mL
  Measured Concentration (Mean ± SD): 24.62 ± 1.12 ng/mL
[4]; 4 °C for 24 h, nominal 251 ng/mL
  Measured Concentration (Mean ± SD): 223.94 ± 15.73 ng/mL
[4]; Room temperature for 24 h, nominal 2.51 ng/mL
  Measured Concentration (Mean ± SD): 2.17 ± 0.13 ng/mL
[4]; Room temperature for 24 h, nominal 20.08 ng/mL
  Measured Concentration (Mean ± SD): 21.81 ± 1.46 ng/mL
[4]; Room temperature for 24 h, nominal 251 ng/mL
  Measured Concentration (Mean ± SD): 244.31 ± 8.62 ng/mL
[4]; three freeze-thaw cycles, nominal 2.51 ng/mL
  Measured Concentration (Mean ± SD): 2.68 ± 0.03 ng/mL
[4]; three freeze-thaw cycles, nominal 20.08 ng/mL
  Measured Concentration (Mean ± SD): 19.43 ± 1.08 ng/mL
[4]; three freeze-thaw cycles, nominal 251 ng/mL
  Measured Concentration (Mean ± SD): 259.84 ± 23.13 ng/mL

## COC1=CC=C(c2cc(O)c(O)cc2C#CC=O)C(=O)C1 [M3]
[1]
  Identification (metabolic pathway from PTD): Dealkylation, Dehydration, Desaturation

## OCC1OC(Oc2ccc3c(c2)OCC(O)(CO)Cc2cc(O)c(O)cc2-3)C(O)C(O)C1O [PTD, protosappanin B-3-O-β-D-glucoside]
RAW264.7 cells
  concentration with no cytotoxicity to RAW264.7 cells: below 200 μmol/L
[2]
  secretion of IL-1β: downregulate; also recorded: significantly reduced; also recorded: significantly downregulated
  secretion of IL-6: downregulate; also recorded: significantly reduced; also recorded: significantly downregulated
  secretion of TNF-α: downregulate; also recorded: significantly reduced; also recorded: significantly downregulated
[3]; [5]
  AUC(0-inf): 405 ± 224 ng·h/mL
  AUC(0-t): 382 ± 211 ng·h/mL
  Cmax: 250 ± 176 ng/mL
  MRT last: 3.06 ± 0.63 h
  MRT inf: 4.15 ± 1.09 h
  half-life: 3.47 ± 0.78 h
[3]; rat, plasma, oral, 27.3 mg/kg, rat, oral 27.3 mg/kg vs intravenous 9.1 mg/kg
  bioavailability: 0.65%
[3]; [6]
  Tmax: ~0.49 h
[3]; [7]
  AUC(0-inf): 19700 ng·h/mL
  AUC(0-t): 19400 ng·h/mL
  MRT last: 1.8 ± 0.5 h
  MRT inf: 2.4 ± 0.83 h
  half-life: 3.65 ± 1.26 h
[4]; 4 °C for 24 h, nominal 5.01 ng/mL
  Measured Concentration (Mean ± SD): 4.96 ± 0.65 ng/mL
[4]; 4 °C for 24 h, nominal 250.5 ng/mL
  Measured Concentration (Mean ± SD): 236.32 ± 13.98 ng/mL
[4]; 4 °C for 24 h, nominal 15,030 ng/mL
  Measured Concentration (Mean ± SD): 15,122.74 ± 959.18 ng/mL
[4]; Room temperature for 24 h, nominal 5.01 ng/mL
  Measured Concentration (Mean ± SD): 5.61 ± 0.32 ng/mL
[4]; Room temperature for 24 h, nominal 250.5 ng/mL
  Measured Concentration (Mean ± SD): 241.97 ± 8.73 ng/mL
[4]; Room temperature for 24 h, nominal 15,030 ng/mL
  Measured Concentration (Mean ± SD): 15,135.44 ± 1324.59 ng/mL
[4]; three freeze-thaw cycles, nominal 5.01 ng/mL
  Measured Concentration (Mean ± SD): 5.23 ± 0.58 ng/mL
[4]; three freeze-thaw cycles, nominal 250.5 ng/mL
  Measured Concentration (Mean ± SD): 260.48 ± 17.36 ng/mL
[4]; three freeze-thaw cycles, nominal 15,030 ng/mL
  Measured Concentration (Mean ± SD): 14,844.73 ± 346.61 ng/mL

## COc1ccc2c(c1)OC(CO)=Cc1cc(O)c(O)cc1-2 [M2]
[1]
  Identification (metabolic pathway from PTD): Dealkylation, Dehydration
